Test results as given in patent US10227361B2, “Fused imidazobenzothiazole compounds” (TORRENT PHARMACEUTICALS LIMITED, priority 2014, dated 2019).
Blank lines part the entries; values can stand above or below the compound they belong to.

Experiments:
[1] = treated up to 12-24 weeks; cited from earlier work
[2] = rheumatoid arthritis; possibly; cited from earlier work
[3] = rheumatoid arthritis patients; single low dose tested; compared to placebo; cited from earlier work
[4] = dogs, 6-month safety study; cited from earlier work
[5] = molecular target: T1, purified recombinant human p38 alpha MAPK (Homo sapiens, UniProt Q16539); experiment: Inhibition of p38 alpha MAPK activity: TR-FRET kinase assay; format: biochemical; conditions: read-out: P38α Inhibition
T1 construct: purchased Millipore, USA
Procedure: Inhibition of p38 Alpha MAPK Activity: Time-Resolved Fluorescence Resonance Energy Transfer Kinase Standard Assay (TR-FRET Assay)
Compounds of present invention at various concentrations were premixed with DMSO. The experiment was initiated by mixing 0.5% 1.0% DMSO as vehicle/compounds with purified recombinant human p38 alpha MAPK (Millipore, USA) in the wells and 15 min incubation at RT. Thereafter, 30 nM of Biotinylated GST-ATF2 (Activation Transcription Factor2) and 100 μM of ATP were added in to the wells containing reaction mixture, followed by reincubation for 60 minutes at RT. Reaction was terminated by addition of 10 mM of EDTA and detection reagent containing anti-phosphothreonine ATF2 antibody (Perkin Elmer, USA) labelled with europium chelate and APC (Allophycocyanin) labeled streptavidin, into the reaction mixture which was further incubated for 60 minutes at room temperature. The degree of phosphorylation of the substrate (GST-ATF2) was measured using Envision multimode reader (Perkin Elmer). Percentage inhibition of p38 kinase activity was calculated by determining ratio of specific europium 665 nm energy transfer signal to reference 615 nm signal.

[6] = system: tobacco smoke induced airway inflammation in mice; experiment: Acute mouse model of tobacco smoke induced airway inflammation (BALF neutrophils); format: in vivo; conditions: BAL fluid, exposure 25 minutes; for Neutrophil (*10^3 cells/animal): Mean ± SEM
Excerpt: The tobacco smoke induced airway inflammation model is used for in vivo efficacy of compound. Many investigators have used acute tobacco smoke (TS) exposure in rodents as models of airway inflammation for quick screening of anti-inflammatory therapies for COPD (J Pharmacol Exp Ther. 2008; 324(3):921-9; J Pharmacol Exp Ther. 2010; 332(3):764-75; Journal of Inflammation 2013, 10(Suppl 1):31 and Eur Respir J Suppl 2006; 663s:3850). Given its position as predominant cause of COPD, animal models using TS exposure would appear to be the logical choice for investigation (Respir Res. 2004; 2; 5:18).
A: Efficacy Studies in Acute Mouse Model of Airway Inflammation
Mice were exposed to tobacco smoke (TS) in an acrylic chamber. Animals were exposed to TS from 8, 12, 16 cigarettes on day1, day2, day 3 respectively. From day 4 onwards till day 11, animals were exposed to TS from 20 cigarettes per day. On 11 days of exposure of mice to TS, significant inflammatory cell recruitment, predominantly neutrophils, to lungs was observed as compared to air exposed control mice (BALF neutrophil levels, nil in air control group vs 93.8±11.7*10^3 cells/animal in smoke exposed vehicle group).
Lung delivery of test compound was achieved by whole body aerosol exposure for 25 minutes in a chamber. Mice were divided in different dose groups and exposed in a chamber for 25 minutes with vehicle or Compound No. 22 (0.3 mg/ml) or Compound No. 22 (3 mg/ml)) or Compound No. 31 (0.3 mg/ml) or Compound No. 31 (1.0 mg/ml). A total quantity of 3.5 ml of either vehicle or test compound formulation (suspension formulation with D90<5μ, with Malvern Mastersizer®) was nebulized in a chamber to respective groups over 25 mins period. Test compounds were administered 2 hr prior to TS exposure from day 6 to day 11. Bronchoalveolar lavage (BAL) was performed 24 hr post last TS exposure.
Trachea of animal was cannulated using catheter. Phosphate Buffer Saline (PBS) was used as lavage fluid. A volume of 0.5 ml was gently instilled and withdrawn and collected in microcentrifuge tube placed on ice. This procedure was repeated further 2 times.
(§1) Lavage fluid was separated from cells by centrifugation and supernatant separated. The cell pallet was resuspended in known volume of PBS. Cells in aliquot were stained using Turk solution and total cell numbers were calculated by counting Turk stained aliquot under microscope using haemocytometer.
(§2) The residual cell suspension was resuspended and slides prepared using cyto centrifuge technique (Cytospin 4, Thermo Shandon). The slides were then fixed with methanol, air dried and stained with May Grunwald Giemsa stain. Up to 300 cells were counted and differentiated using standard morphometric techniques under light microscopy.
All results are presented at individual data for each animal and mean value calculated for each group. Percentage inhibition for the neutrophil was calculated for Compound No. 22 & 31 treatment group against vehicle group.

[7] = system: tobacco smoke induced airway inflammation in guinea pig; experiment: Acute guinea pig model of tobacco smoke induced airway inflammation (BALF neutrophils); format: in vivo, Guinea pigs; conditions: BAL fluid, 6 mg/ml aerosol, exposure 75 minutes
Excerpt: B. (I) Efficacy Studies in Acute Guinea Pig Model of Airway Inflammation
Guinea pigs were exposed to tobacco smoke (TS) in an acrylic chamber. Animals were exposed to TS from 5, 10, 15 cigarettes on day 1, day 2, day 3 respectively. From day 4 onwards till day 11, animals were exposed to TS from 15 cigarettes per day. On 11 days of exposure of guinea pig to TS, significant inflammatory cell recruitment, predominantly neutrophils, to lungs was observed as compared to air exposed control guinea pig (BALF neutrophil levels, 0.23±0.052*10^6 cells/animal in air control group vs 3.5±0.62*10^6 cells/animal in smoke exposed vehicle group).
Lung delivery of test compound was achieved by whole body aerosol exposure for 75 minutes in a chamber. […] A total quantity of 7.0 ml of either vehicle or test compound formulation (suspension formulation with D90<5μ, with Malvern Mastersizer®) was nebulized in chambers to respective groups over 75 mins period. […]
Lavage fluid was separated from cells by centrifugation and supernatant separated. […] Cells in aliquot were stained using Turk solution and total cell numbers were calculated by counting Turk stained aliquot under microscope using haemocytometer. […]
All results are presented at individual data for each animal and mean value calculated for each group. Percentage inhibition for the neutrophil was calculated for Compound No 31 treatment group against vehicle group.

[8] = system: tobacco smoke (TS) and LPS induced chronic COPD model in guinea pigs; experiment: Chronic model of COPD in guinea pigs (TS and LPS, 18 weeks); format: in vivo
Procedure: (II) Efficacy Studies in Chronic Model of COPD in Guinea Pigs
Guinea pigs were exposed to tobacco smoke (TS) and LPS in an acrylic chamber. Exposure to TS and LPS is given in the manner as illustrated in FIG. 3 in a week for a total of 18 weeks.
Lung delivery of test material was achieved by whole body aerosol exposure for 75 minutes in a chamber. Guinea pig were divided in different dose groups and exposed to vehicle or Compound No. 31 (2 mg/ml). A total quantity of 7.0 ml of either vehicle or Compound No. 31 (suspension formulation with D90<5μ, with Malvern Mastersizer®) was nebulized in chambers to respective groups over 75 mins period. Compound No 31 was administered 2 hr prior to TS/LPS exposure once daily from week 9 to week 18. Control animals were exposed to room air instead of TS and PBS instead of LPS. Lung function and bronchoalveolar lavage (BAL) for each animal was performed 24 hr post last TS exposure.
Lung function assessment in anesthetized and tracheotomized animal was carried out using PFT maneuvers (BUXCO, USA) for determination of various parameters such as Functional Residual Capacity (FRC), Residual volume (RV), Pressure volume and flow volume relationships.
Trachea of animal was cannulated using catheter. Phosphate Buffer Saline (PBS) was used as lavage fluid. A volume of 5.0 ml was gently instilled and withdrawn and collected in microcentrifuge tube placed on ice. This procedure was repeated further 5 times.
as §1, §2
After collection of BALF lung was fixed under constant pressure using neutral buffered formaline, which is to be used further for histopathological analysis. Hematoxylin and eosin stained slides were used for assessment of lung inflammatory cell influx and alveolar & epithelial inflammatory changes. Periodic acid-Schiff-diastase stained slides were used to evaluate mucin secreting cells and Masson's trichome stained slides were used for assessment of collagen fibers in parenchyma.
All results are presented at individual data for each animal and mean value calculated for each group. Percentage inhibition for the neutrophil was calculated for compound no 31 group against vehicle group.

T1 sequence (Q16539 whole entry): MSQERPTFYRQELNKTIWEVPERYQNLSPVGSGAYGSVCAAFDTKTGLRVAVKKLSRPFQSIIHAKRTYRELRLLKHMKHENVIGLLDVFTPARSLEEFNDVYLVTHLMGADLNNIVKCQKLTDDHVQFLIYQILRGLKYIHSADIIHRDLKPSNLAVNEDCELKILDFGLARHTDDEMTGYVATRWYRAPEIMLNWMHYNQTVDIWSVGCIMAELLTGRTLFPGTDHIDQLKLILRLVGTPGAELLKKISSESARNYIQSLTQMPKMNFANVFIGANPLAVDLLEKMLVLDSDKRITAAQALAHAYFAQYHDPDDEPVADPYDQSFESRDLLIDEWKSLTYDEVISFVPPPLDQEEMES

SMILES: Cc1c(F)cc(C(=O)NC2CC2)cc1-c1ccc(C(=O)NCC(C)(C)C)cn1 [Losmapimod]
tolerability in clinical studies [1]: well tolerated

SMILES: CNC(=O)c1ccc(C)c(-n2c(C)cc(OCc3ccc(F)cc3F)c(Br)c2=O)c1 [PH-797804]
tolerability in clinical studies [1]: well tolerated

SMILES: Cc1ccc(-n2nc(C(C)(C)C)cc2NC(=O)Nc2ccc(OCCN3CCOCC3)c3ccccc23)cc1 [BIRB-796]
reason for withdrawal from Phase II clinical trials [2]: liver enzyme elevations

SMILES: O=c1ncn2nc(Sc3ccc(F)cc3F)ccc2c1-c1c(Cl)cccc1Cl [Vx-745]
clinical benefit [3]: significant clinical benefit compared to placebo | toxicity in safety study [4]: undisclosed CNS toxicity

inhibition at 1 µM ([5]; Concentration 1 μM): 80 to 100%
SMILES: CC(C)(C)c1cc(NC(=O)NCc2ccccc2Oc2ccc3c(c2)sc2ncc(CO)n23)n(-c2ccc(O)c(Cl)c2)n1 [Compound 22, 1-[3-tert-butyl-1-(3-chloro-4-hydroxyphenyl)-1H-pyrazol-5-yl]-3-(2-{[3-(hydroxymethyl)imidazo[2,1-b][1,3]benzothiazol-7-yl]oxy}benzyl)urea]
% Inhibition (neutrophil, against vehicle group) ([6]; 0.3 mg/ml aerosol): 24% | Neutrophil (*10^3 cells/animal) ([6]; 0.3 mg/ml aerosol): 71.2 ± 13.6 *10^3 cells/animal | % Inhibition (neutrophil, against vehicle group) ([6]; 3 mg/ml aerosol): 62% | Neutrophil (*10^3 cells/animal) ([6]; 3 mg/ml aerosol): 35.2 ± 3.7 *10^3 cells/animal

inhibition at 0.1 µM ([5]; Concentration 100 nM): 80 to 100%
SMILES: COCc1cnc2sc3cc(Oc4ccccc4CNC(=O)Nc4cc(C(C)(C)C)nn4-c4ccc(O)c(Cl)c4)ccc3n12 [Compound 31, 1-[3-tert-butyl-1-(3-chloro-4-hydroxyphenyl)-1H-pyrazol-5-yl]-3-(2-{[3-(methoxymethyl)imidazo[2,1-b][1,3]benzothiazol-7-yl]oxy}benzyl)urea]
% Inhibition (neutrophil, against vehicle group) ([6]; 0.3 mg/ml aerosol): 60% | Neutrophil (*10^3 cells/animal) ([6]; 0.3 mg/ml aerosol): 40.3 ± 6.2 *10^3 cells/animal | % Inhibition (neutrophil, against vehicle group) ([6]; 1.0 mg/ml aerosol): 80% | Neutrophil (*10^3 cells/animal) ([6]; 1.0 mg/ml aerosol): 20.4 ± 3.8 *10^3 cells/animal | % Inhibition (neutrophil, against vehicle group) [7]: 48% | Neutrophil (*10^6 cells/animal) ([7]; Mean ± SEM): 1.8 ± 0.28 *10^6 cells/animal | % inhib^n (neutrophil, against vehicle group) ([8]; guinea pig chronic COPD model, BALF, 2 mg/ml aerosol, 75 minutes): 52% | Neutrophil (*10^6cells) ([8]; guinea pig chronic COPD model, BALF, 2 mg/ml aerosol, 75 minutes, once daily week 9 to 18, Mean ± SEM): 3.3 ± 0.71 *10^6cells | Composite score (Range) ([8]; lung remodeling, histopathological analysis of lung tissue, 2 mg/ml): 0.4 (0.1 to 0.5) | Average number of mucin secreting cells/10 high power field (Range) ([8]; mucus secretion, 2 mg/ml): 301 (190-420) cells/10 high power field
